We go through one compound from patent US20240173333A1, “Treating Alagille Syndrome (ALGS)” (priority 2022, published 2024).

Assay [1] concerns patients with Alagille syndrome (ALGS). Nature of the assay: ASSERT phase 3 trial: ObsRO scratching score and pruritus response. Format: in vivo, human. To be noted: 120 μg/kg/day. On the procedure:
Odevixibat is an orally administered, potent, luminally restricted, selective IBAT inhibitor in development to treat cholestatic liver diseases. In this phase 3, double-blind, randomized, 24-week trial (ASSERT), the efficacy and safety of odevixibat versus placebo was evaluated in patients with Alagille Syndrome (ALGS). The efficacy of odevixibat in patients with ALGS was evaluated in a 24-week, randomized, double-blind, placebo-controlled trial conducted in 52 patients with a confirmed diagnosis of ALGS (NCT04674761; ASSERT). Patients were randomized 2:1 to receive odevixibat 120 μg/kg/day or placebo.
The study consisted of a screening phase and parallel-design treatment period. Two screening visits occurred: the first took place during days −56 to −21 prior to the first dose of study drug and the second occurred during days −49 to ˜14. On day 0, all eligible patients were randomized 2:1 to oral, 120 μg/kg/day odevixibat or once-daily placebo. Eligibility for randomization was determined using pruritus or scratching reports from observer reported outcome (ObsRO)/patient reported outcome (PRO) data for evaluation of itching (PRO), scratching (ObsRO), and sleep disturbance (PRO and ObsRO) in the 14 days before Study Day 1, clinical genetic confirmation of diagnosis, and the liver biochemistry evaluations from the previous screening visits. After written informed consent was obtained, an Interactive Web Response System (IWRS) was used to assign patients to treatment. The randomization codes were computer generated by Albireo or a qualified randomization vendor.
A single primary endpoint was evaluated. The primary endpoint in this study was the change from baseline in scratching to Month 6 (Weeks 21 to 24) as measured by the observer-reported outcome (ObsRO) instrument.
Itching, Scratching, and Sleep Parameters. Itching, observed scratching, and sleep disturbance were recorded twice each day via eDiary. Patients and/or caregivers were instructed to complete the eDiary every day in the morning after the patient woke and in the evening just before the patient went to sleep throughout the study. The eDiary included ObsRO and PRO items. The PRO items assessed severity of itch, aspects of sleep disturbance (morning diary only), and tiredness. The ObsRO items assessed severity of observed scratching, aspects of observed sleep disturbance (morning diary only), and signs of tiredness (evening diary only). […]
Statistical Analyses. […] After a minimum of 18 patients had completed the Week 16 visit, the pooled SD of change from baseline to Month 4 (Weeks 13-16 assessments) and available change from baseline to Month 6 (Weeks 21-24 assessments) in average monthly scratching score was calculated by an independent statistician to assess the need for sample size re-estimation. […]

For assay [2] the test system is unchanged. The experiment in a line: ASSERT: PedsQL total and domain scores. The class given is in vivo, human. An excerpt:
[…] Additional secondary efficacy endpoints were as follows: • Change from baseline in pruritus to Month 6 (Weeks 21 to 24) as measured by the Albireo PRO instrument. • Percentage of patients achieving a clinically meaningful decrease in pruritus (pruritis responders) as measured by the ObsRO/PRO instruments. • Change from baseline through Week 24 in patient reported and observer reported itching and scratching severity scores, respectively, for the morning assessment and for the evening assessment; sleep parameters as measured with the Albireo ObsRO/PRO instruments (e.g., tiredness and number of awakenings); and PedsQL subdomain scores. • Assessment of Global Symptom Relief to from baseline to Weeks 4, 12, and 24 as measured by patient, caregiver, and clinician Global Impression of Symptoms GIS (PGIS, CaGIS, CGIS) items. • Change from baseline to Week 24 in xanthomatosis as assessed by the Clinician Xanthoma Scale; serum bile acid levels; serum ALT concentration; and serum AST concentration; gamma-glutamyl transferase concentration; total bilirubin concentration. • Change from baseline in biochemical markers and measures of bile acid synthesis (autotaxin, p-C4, only in patients >10 kg); and total cholesterol concentration.
Scores range from 0 and 100, with higher scores indicating better functioning. *n=28 for LS mean change from baseline to week 24. ^†Analysis of change from baseline with odevixibat vs placebo based on ANCOVA model at each visit with baseline score as a covariate and treatment group and age category (<5 years, 5-7 years, 8-12 years, 13-18 years) as fixed effects. ANCOVA=analysis of covariance. LS=least squares. PedsQL=Paediatric Quality of Life Inventory.

As to `CCCCC1(CCCC)CN(c2ccccc2)c2cc(SC)c(OCC(=O)N[C@@H](C(=O)N[C@@H](CC)C(=O)O)c3ccc(O)cc3)cc2S(=O)(=O)N1` [odevixibat, 1,1-dioxo-3,3-dibutyl-5-phenyl-7-methylthio-8-(N-{(R)-α-[N-((S)-1-carboxypropyl)carbamoyl]-4-hydroxybenzyl}carbamoylmethoxy)-2,3,4,5-tetrahydro-1,2,5-benzothiadiazepine], in assay [1] (baseline to Weeks 21-24, 34 patients), the “LS mean change from baseline in scratching score (ObsRO)” value is recorded as −1.69 points. In assay [1] (onset of effect), the “improvement in pruritus (mean monthly ObsRO scratching score) observed as early as” value is recorded as 1 week. Further, the “percentage of patients who were pruritus responders (≥1-point reduction in monthly scratching score from baseline)” value in assay [1] (week 12) was found to be 74%. The “percentage of patients who were pruritus responders (≥1-point reduction in monthly scratching score from baseline)” value in assay [1] (week 24 (weeks 21-24), n=35) came to 80%. In assay [2] (baseline, n=30), the “PedsQL Emotional Functioning, Mean (SD) at baseline” value is 55.8 (17.8); the “PedsQL Physical Functioning, Mean (SD) at baseline” value is 71.6 (21.4); the “PedsQL School Functioning, Mean (SD) at baseline” value is 63.3 (22.9); the “PedsQL Social Functioning, Mean (SD) at baseline” value is recorded as 78.5 (18.8). For the same compound, in assay [2] (baseline, n=30, score 0-100), the “PedsQL Total Score, Mean (SD) at baseline” value was 67.8 (16.3). In addition, in assay [2] (n=28), the “PedsQL Emotional Functioning, LS mean (SE) change from baseline to week 24” value is listed as 21.0 (3.3); the “PedsQL Physical Functioning, LS mean (SE) change from baseline to week 24” value is recorded as 14.2 (2.9); the “PedsQL School Functioning, LS mean (SE) change from baseline to week 24” value is 13.3 (3.0); the “PedsQL Social Functioning, LS mean (SE) change from baseline to week 24” value is listed as 5.1 (3.2). In addition, the “PedsQL Total Score, LS mean (SE) change from baseline to week 24” value in assay [2] (n=28, score 0-100) is 13.5 (2.5).
